How the values were obtained:
[1] = tested on: mouse; conditions: Carcinogenicity, b6c3f1, Oral, Gavage/Intubation, dose end: 91 week, group: systemic
[2] = tested on: rat; conditions: Carcinogenicity; other; Oral; Feed; dose end: 78 week; group: systemic; systemic / in life observation / clinical signs / abdominogenital staining + systemic / in life observation / clinical signs / fur (altered …
[3] = tested on: rat; conditions: Subchronic oral toxicity in rodents, sprague dawley, Gavage/Intubation, dose end: 90 day, group: systemic
[4] = tested on: mouse; conditions: Subchronic oral toxicity in rodents, b6c3f1, Water, dose end: 10 week, group: systemic
[5] = tested on: mouse; conditions: Carcinogenicity, b6c3f1, Oral, Water, dose end: 96 week, group: systemic
[6] = tested on: rat; conditions: Subchronic oral toxicity in rodents, fischer, Gavage/Intubation, dose end: 16 week
[7] = tested on: rat; conditions: Carcinogenicity, fischer, Oral, Gavage/Intubation, dose end: 2 year, group: systemic
[8] = tested on: mouse; conditions: Carcinogenicity, b6c3f1, Oral, Gavage/Intubation, dose end: 2 year, group: systemic
[9] = tested on: mouse; conditions: Subchronic oral toxicity in rodents, b6c3f1, Gavage/Intubation, dose end: 16 week, group: systemic
[10] = tested on: mouse; conditions: Carcinogenicity; b6c3f1; Oral; Feed; dose end: 104 week; group: systemic; systemic / pathology microscopic / spleen / hematopoietic cell proliferation + systemic / pathology microscopic / stomach / hyperkeratosis
[11] = tested on: rat; conditions: Combined chronic toxicity/carcinogenicity; wistar; Oral; Feed; dose end: 2 year; group: systemic; systemic / in life observation / clinical signs / aggressive behavior + systemic / in life observation / clinical signs / excitation + …
[12] = tested on: dog; conditions: Chronic toxicity; beagle; Oral; Capsule; dose end: 104 PND; group: systemic; systemic / in life observation / clinical signs / [other]
[13] = tested on: rat; conditions: Subchronic oral toxicity in rodents, fischer, Feed, dose end: 13 week, group: systemic
[14] = tested on: mouse; conditions: Carcinogenicity, b6c3f1, Oral, Feed, dose end: 103 week, group: systemic
[15] = tested on: rat; conditions: Carcinogenicity, fischer, Oral, Feed, dose end: 103 week, group: systemic
[16] = tested on: mouse; conditions: Subchronic oral toxicity in rodents, b6c3f1, Feed, dose end: 13 week, group: systemic
[17] = tested on: rat; conditions: Combined chronic toxicity/carcinogenicity, sprague dawley, Oral, Feed, dose end: 24 month, group: systemic
[18] = tested on: dog; conditions: Chronic toxicity, beagle, Oral, Feed, dose end: 52 week, group: systemic
[19] = tested on: rat; conditions: Subchronic oral toxicity in rodents, sprague dawley, Feed, dose end: 90 day, group: systemic
[20] = tested on: mouse; conditions: Carcinogenicity, cd1, Oral, Feed, dose end: 18 month, group: systemic
[21] = tested on: rat; conditions: Prenatal developmental toxicity study, sprague dawley, Oral, Gavage/Intubation, dose end: 15 GD
[22] = tested on: rat; conditions: Multigenerational reproductive toxicity study; sprague dawley; Oral; Water; dose end: 1 generation; group: reproductive; reproductive / offspring survival early / litter size / litter size + reproductive / offspring survival early / live fetuses / live fetuses
[23] = systemic / pathology microscopic / adrenal gland / pheochromocytoma nos + systemic / pathology microscopic / liver / carcinoma + systemic / …
[24] = systemic / pathology microscopic / liver / carcinoma + systemic / in life observation / mortality / mortality + systemic / in life …
[25] = systemic / clinical chemistry / creatinine / creatinine + systemic / clinical chemistry / phosphorus / phosphorus + systemic / clinical …
[26] = systemic / in life observation / clinical signs / general pallor + systemic / in life observation / clinical signs / lethargy + systemic / …
[27] = systemic / in life observation / mortality / mortality + systemic / pathology microscopic / kidney / degeneration + systemic / pathology …
[28] = systemic / organ weight / brain / relative to body weight
[29] = systemic / organ weight / brain / relative to body weight + systemic / organ weight / heart / relative to body weight + systemic / organ …
[30] = group: cholinesterase, cholinesterase / cholinesterase / cholinesterase / cholinesterase (che)
[31] = group: systemic, systemic / organ weight / kidney / absolute + systemic / organ weight / kidney / relative to body weight + systemic / organ weight / liver…
[32] = systemic / pathology microscopic / brain / degeneration + systemic / clinical chemistry / alanine aminotransferase (alt/sgpt) / alanine …
[33] = systemic / pathology microscopic / brain / degeneration + systemic / pathology microscopic / brain / necrosis + systemic / pathology …
[34] = systemic / pathology microscopic / kidney / karyomegaly
[35] = systemic / pathology microscopic / kidney / karyomegaly + systemic / pathology microscopic / harderian gland / adenoma
[36] = systemic / pathology microscopic / kidney / cytomegaly + systemic / pathology microscopic / kidney / karyomegaly + systemic / organ weight…
[37] = systemic / in life observation / food consumption / food consumption + systemic / organ weight / liver / absolute
[38] = systemic / in life observation / body weight / body weight
[39] = systemic / in life observation / body weight / body weight + systemic / in life observation / clinical signs / [other] + systemic / in life …
[40] = systemic / in life observation / body weight / body weight + systemic / in life observation / clinical signs / aggressive behavior + …
[41] = systemic / in life observation / clinical signs / ocular discharge + systemic / in life observation / clinical signs / aggressive behavior…
[42] = systemic / clinical chemistry / gamma glutamyl transferase (ggt) / gamma glutamyl transferase (ggt)
[43] = systemic / in life observation / clinical signs / ataxia + systemic / pathology microscopic / brain / vacuolization
[44] = systemic / in life observation / clinical signs / ataxia + systemic / pathology microscopic / brain / vacuolization + systemic / in life …
[45] = systemic / pathology microscopic / spleen / hyperplasia + systemic / clinical chemistry / calcium / calcium + systemic / clinical chemistry…
[46] = systemic / pathology microscopic / nerve / degeneration + systemic / pathology microscopic / spinal cord / degeneration + systemic / …
[47] = group: developmental, developmental / developmental malformation / bone / enlarged fontanel + developmental / developmental malformation / bone / incomplete …
[48] = group: maternal, systemic / in life observation / body weight / body weight gain

With `ClCC(Cl)Cl` [1,1,2-Trichloroethane] the LOAEL [1, 23] was greater than 390 mg/kg/day, the NOAEL [1, 23] was no less than 390 mg/kg/day and the LEL [1, 24] was 195 mg/kg/day. The NEL [1, 24] was less than 195 mg/kg/day, the LEL [2] was 46 mg/kg/day and the LOAEL [2] was greater than 92 mg/kg/day. The NEL [2] was less than 46 mg/kg/day and the NOAEL [2] was no less than 92 mg/kg/day.

`O=c1c(C2CC(c3ccc(-c4ccc(Br)cc4)cc3)Cc3ccccc32)c(O)sc2ccccc12` (stereo unspecified) [Difethialone] gave an LEL [3, 25] of 0.002 mg/kg/day, an NEL [3, 25] of less than 0.002 mg/kg/day and an LOAEL [3, 26] of 0.008 mg/kg/day. The NOAEL [3, 26] was 0.004 mg/kg/day.

`O=C1O[C@H]([C@H](O)CO)C([O-])=C1O.[Na+]` [Sodium erythorbate (1:1)] gave an NEL ([4]; systemic / in life observation / body weight / body weight gain + systemic / in life observation / mortality / mortality + systemic / …) of 3330 mg/kg/day, an LEL ([4]; systemic / in life observation / body weight / body weight gain + systemic / pathology microscopic / kidney / degeneration + systemic / …) of 6670 mg/kg/day and an LOAEL [4, 27] greater than 13300 mg/kg/day. The NOAEL [4, 27] was no less than 13300 mg/kg/day, the LEL [5, 28] was 1670 mg/kg/day and the NEL [5, 28] was less than 1670 mg/kg/day. It also gave an LOAEL [5, 29] greater than 6670 mg/kg/day and an NOAEL [5, 29] of no less than 6670 mg/kg/day.

`O=P(OCCCl)(OCCCl)OCCCl` [Tris(2-chloroethyl) phosphate] gave an LEL [6, 30] of 175 mg/kg/day, an LOAEL [6, 30] of 175 mg/kg/day and an NEL [6, 30] of 88 mg/kg/day. It also gave an NOAEL [6, 30] of 88 mg/kg/day, an LOAEL ([6]; group: systemic, systemic / in life observation / clinical signs / hyperactivity + systemic / pathology microscopic / brain / necrosis) of 175 mg/kg/day and an LEL [6, 31] of 44 mg/kg/day. For the same compound, the NEL [6, 31] was 22 mg/kg/day, the NOAEL [6, 31] was 88 mg/kg/day and the NEL [7, 32] was 44 mg/kg/day. The NOAEL [7, 32] was 44 mg/kg/day, the LEL [7, 33] was 88 mg/kg/day and the LOAEL [7, 33] was 88 mg/kg/day. For the same compound, the LOAEL [8, 34] was 175 mg/kg/day, the NOAEL [8, 34] was less than 175 mg/kg/day and the LEL [8, 35] was 175 mg/kg/day. For the same compound, the NEL [8, 35] was less than 175 mg/kg/day, the LEL ([9]; systemic / organ weight / liver / absolute + systemic / organ weight / liver / relative to body weight + systemic / organ weight / kidney / …) was 175 mg/kg/day and the LOAEL ([9]; systemic / pathology microscopic / kidney / cytomegaly + systemic / pathology microscopic / kidney / karyomegaly) was 700 mg/kg/day. The NEL [9, 36] was 88 mg/kg/day and the NOAEL [9, 36] was 350 mg/kg/day.

In the case of `Cc1ccc(N=CN(C)C=Nc2ccc(C)cc2C)c(C)c1` [Amitraz], the LEL [10] is reported as 2.31 mg/kg/day, the LOAEL [10] is reported as 2.31 mg/kg/day and the NEL [10] is reported as less than 2.31 mg/kg/day. The NOAEL [10] was less than 2.31 mg/kg/day, the LEL [11] was 3.13 mg/kg/day and the LOAEL [11] was 3.13 mg/kg/day. It also gave an NEL [11] of 0.97 mg/kg/day, an NOAEL [11] of 0.97 mg/kg/day and an LEL [12] of 1 mg/kg/day. The LOAEL [12] was 1 mg/kg/day, the NEL [12] was 0.25 mg/kg/day and the NOAEL [12] was 0.25 mg/kg/day.

Compound `C[C@](N)(Cc1ccc(O)c(O)c1)C(=O)O.C[C@](N)(Cc1ccc(O)c(O)c1)C(=O)O.O.O.O` [Methyldopa sesquihydrate] has an LEL [13, 37] of 155 mg/kg/day, an NEL [13, 37] of less than 155 mg/kg/day and an LOAEL ([13]; systemic / pathology microscopic / kidney / regeneration + systemic / in life observation / body weight / body weight) of 625 mg/kg/day. The NOAEL ([13]; systemic / pathology microscopic / kidney / regeneration + systemic / in life observation / body weight / body weight + systemic / in life …) was 315 mg/kg/day, the LOAEL [14, 38] was 830 mg/kg/day and the NOAEL [14, 38] was less than 830 mg/kg/day. It also gave an LEL [14, 39] of 830 mg/kg/day, an NEL [14, 39] of less than 830 mg/kg/day and an LOAEL [15, 38] of 110 mg/kg/day. For the same compound, the NOAEL [15, 38] was less than 110 mg/kg/day, the LEL [15, 40] was 110 mg/kg/day and the NEL [15, 40] was less than 110 mg/kg/day. For the same compound, the LEL [16, 41] was 465 mg/kg/day, the NEL [16, 41] was less than 465 mg/kg/day and the LOAEL [16, 34] was 1880 mg/kg/day. For the same compound, the NOAEL ([16]; systemic / pathology microscopic / kidney / karyomegaly + systemic / in life observation / body weight / body weight + systemic / in life …) was 945 mg/kg/day.

Work on `Cc1cc(C)nc(NC(=O)NS(=O)(=O)c2ccccc2C(=O)OC2COC2)n1` [Oxasulfuron] yielded an LEL [17, 42] of 0.84 mg/kg/day, an LOAEL [17, 42] of 83 mg/kg/day and an NEL [17, 42] of less than 0.84 mg/kg/day. It also gave an NOAEL ([17]; systemic / clinical chemistry / gamma glutamyl transferase (ggt) / gamma glutamyl transferase (ggt) + systemic / pathology microscopic / …) of 8.3 mg/kg/day, an LEL [18, 43] of 10.7 mg/kg/day and an LOAEL [18, 43] of 10.7 mg/kg/day. For the same compound, the NEL [18, 44] was 1.3 mg/kg/day, the NOAEL [18, 44] was 1.3 mg/kg/day and the LEL ([19]; systemic / clinical chemistry / chloride / chloride + systemic / clinical chemistry / cholesterol / cholesterol) was 15.3 mg/kg/day. For the same compound, the LOAEL ([19]; systemic / pathology microscopic / spleen / hyperplasia) was 316 mg/kg/day, the NEL [19, 45] was 0.62 mg/kg/day and the NOAEL [19, 45] was 15.3 mg/kg/day. For the same compound, the LOAEL ([20]; systemic / pathology microscopic / nerve / degeneration + systemic / pathology microscopic / spinal cord / degeneration) was 99.1 mg/kg/day, the LEL ([20]; systemic / pathology microscopic / nerve / degeneration + systemic / pathology microscopic / spinal cord / degeneration + systemic / organ …) was 99.1 mg/kg/day and the NEL [20, 46] was 1.5 mg/kg/day. The NOAEL [20, 46] was 1.5 mg/kg/day, the LEL [21, 47] was 1000 mg/kg/day and the LOAEL [21, 47] was 1000 mg/kg/day. The NEL [21, 47] was 300 mg/kg/day, the NOAEL [21, 47] was 300 mg/kg/day and the LEL [21, 48] was 1000 mg/kg/day. It also gave an LOAEL [21, 48] of 1000 mg/kg/day, an NEL [21, 48] of 300 mg/kg/day and an NOAEL [21, 48] of 300 mg/kg/day.

With `Oc1ccccc1Cl` [2-Chlorophenol] the LEL [22] was 25 mg/kg/day, the LOAEL [22] was greater than 25 mg/kg/day and the NEL [22] was 2.5 mg/kg/day. It also gave an NOAEL [22] of no less than 25 mg/kg/day.

Source: EPA's ToxRefDB 2
